What was measured:
Cricetinae = settings: 3 uM
Description: Inhibition of hamster potassium channel at 3 uM by radioligand binding assay

[1] = molecular target: Glutamate NMDA receptor (Rattus norvegicus) (UniProt P35439+Q00959+Q00960+Q00961+Q62645+Q8VHN2+Q9R1M7); assay: Inhibition of rat NMDA receptor phencyclidine binding site at 3 uM by radioligand binding assay; format: protein-complex assay
Rattus norvegicus [2] = assay: Antipsychotic-like effect in po dosed rat assessed as methamphetamine-induced locomotor hyperactivity; format: functional
[3] = molecular target: Endothelin receptor type B (Homo sapiens) (UniProt P24530); assay: Inhibition of human ETB receptor at 3 uM by radioligand binding assay
[4] = molecular target: Muscarinic acetylcholine receptor M4 (Homo sapiens, UniProt P08173); assay: Agonist activity at muscarinic M4 receptor (unknown origin) by calcium mobilization assay; format: functional
[5] = molecular target: D(4) dopamine receptor (Homo sapiens) (UniProt P21917); assay: Inhibition of human dopamine D4.2 receptor at 3 uM by radioligand binding assay
[6] = molecular target: Cannabinoid receptor 1 (Homo sapiens) (UniProt P21554); assay: Inhibition of human CB1 receptor at 3 uM by radioligand binding assay
[7] = molecular target: Neuronal acetylcholine receptor subunit alpha-7 (Rattus norvegicus) (UniProt Q05941); assay: Inhibition of rat nAChR alpha7 at 3 uM by methyllycaconitine binding assay
Rattus norvegicus [8] = organism: Rattus norvegicus; assay: Inhibition of rat GABAB type receptor at 3 uM by radioligand binding assay
[9] = Oral bioavailability in rat at 2.5 mg/kg; format: ADME, organism-based; settings: in vivo
[10] = molecular target: Alpha-2A adrenergic receptor (Homo sapiens) (UniProt P08913); assay: Inhibition of human alpha2A adrenergic receptor at 3 uM by radioligand binding assay
[11] = molecular target: Beta-2 adrenergic receptor (Homo sapiens) (UniProt P07550); assay: Inhibition of human beta2 adrenergic receptor at 3 uM by radioligand binding assay
[12] = molecular target: L-type calcium channel, benzothiazepine binding site (Rattus norvegicus, UniProt P22002+P27732+Q02485); assay: Inhibition of rat L-type calcium channel benzothiazepine binding site at 3 uM by radioligand binding assay; format: protein assay
[13] = molecular target: T1, Muscarinic acetylcholine receptor M1 (Homo sapiens) (UniProt P11229); assay: Agonist activity at muscarinic M1 receptor (unknown origin) at 0.3 uM by calcium mobilization assay; format: functional
T1 sequence (whole entry): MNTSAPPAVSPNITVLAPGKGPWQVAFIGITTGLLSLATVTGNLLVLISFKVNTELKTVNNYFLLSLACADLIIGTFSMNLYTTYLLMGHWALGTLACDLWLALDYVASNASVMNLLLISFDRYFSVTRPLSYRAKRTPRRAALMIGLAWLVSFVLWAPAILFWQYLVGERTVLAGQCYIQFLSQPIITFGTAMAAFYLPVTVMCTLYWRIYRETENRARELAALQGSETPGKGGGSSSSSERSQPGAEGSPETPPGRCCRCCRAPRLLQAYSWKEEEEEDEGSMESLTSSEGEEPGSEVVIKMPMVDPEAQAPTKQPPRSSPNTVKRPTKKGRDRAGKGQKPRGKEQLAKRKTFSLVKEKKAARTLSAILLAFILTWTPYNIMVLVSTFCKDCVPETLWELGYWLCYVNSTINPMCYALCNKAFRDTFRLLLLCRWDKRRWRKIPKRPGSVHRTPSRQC

[14] = Volume of distribution at steady state in monkey at 0.25 mg/kg, iv and 2.5 mg/kg, po; format: ADME, organism-based, Macaca mulatta; settings: rhesus monkey, in vivo, read-out: Vdss
[15] = molecular target: Neuronal acetylcholine receptor; alpha4/beta2 (Rattus norvegicus) (UniProt P09483+P12390); assay: Displacement of [3H]cytisine from rat alpha4beta2 nAChR; format: protein-complex assay; settings: concentration not given here
[16] = molecular target: cAMP and cAMP-inhibited cGMP 3',5'-cyclic phosphodiesterase 10A (Homo sapiens) (UniProt Q9Y233); assay: Inhibition of human PDE10A1 at 3 uM by radioligand binding assay
[17] = molecular target: Alpha-1B adrenergic receptor (Rattus norvegicus) (UniProt P15823); assay: Inhibition of rat alpha1B adrenergic receptor at 3 uM by radioligand binding assay
[18] = molecular target: Adenosine receptor A1 (Homo sapiens) (UniProt P30542); assay: Inhibition of human adenosine A1 receptor at 3 uM by radioligand binding assay
Rattus norvegicus [19] = organism: Rattus norvegicus; assay: Inhibition of rat GABAA central type receptor flunitrazepam binding site at 3 uM by radioligand binding assay
[20] = molecular target: Muscarinic acetylcholine receptor M1 (Homo sapiens, UniProt P11229); assay: Agonist activity at muscarinic M1 receptor (unknown origin) by calcium mobilization assay; format: functional
[21] = molecular target: Mu-type opioid receptor (Homo sapiens) (UniProt P35372); assay: Inhibition of human mu opioid receptor at 3 uM by radioligand binding assay
[22] = Cmax in monkey at 0.25 mg/kg, iv and 2.5 mg/kg, po; format: ADME, organism-based, Macaca mulatta; settings: rhesus monkey, in vivo
Rattus norvegicus [23] = organism: Rattus norvegicus; assay: Displacement of [125I]alpha-bungarotoxin from rat nicotinic acetylcholine receptor at 3 uM by radioligand binding assay
[24] = molecular target: Alpha-1A adrenergic receptor (Rattus norvegicus) (UniProt P43140); assay: Inhibition of rat alpha1A adrenergic receptor at 3 uM by radioligand binding assay
Chain of Alpha-1A adrenergic receptor (Rattus norvegicus) (P43140 whole entry): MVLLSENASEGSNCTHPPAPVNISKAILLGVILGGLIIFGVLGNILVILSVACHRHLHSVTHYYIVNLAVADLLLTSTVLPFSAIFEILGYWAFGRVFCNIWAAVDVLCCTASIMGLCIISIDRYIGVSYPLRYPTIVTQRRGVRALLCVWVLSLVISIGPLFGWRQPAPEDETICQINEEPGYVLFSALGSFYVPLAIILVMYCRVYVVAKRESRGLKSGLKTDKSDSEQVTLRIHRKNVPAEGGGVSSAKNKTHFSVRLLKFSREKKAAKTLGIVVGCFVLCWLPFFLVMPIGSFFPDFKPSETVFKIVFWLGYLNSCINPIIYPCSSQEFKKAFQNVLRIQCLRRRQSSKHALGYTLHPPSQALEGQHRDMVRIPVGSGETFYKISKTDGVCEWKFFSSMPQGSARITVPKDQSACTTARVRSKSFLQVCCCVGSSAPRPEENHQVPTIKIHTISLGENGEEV

Chain of cAMP and cAMP-inhibited cGMP 3',5'-cyclic phosphodiesterase 10A (Homo sapiens) (Q9Y233 whole entry): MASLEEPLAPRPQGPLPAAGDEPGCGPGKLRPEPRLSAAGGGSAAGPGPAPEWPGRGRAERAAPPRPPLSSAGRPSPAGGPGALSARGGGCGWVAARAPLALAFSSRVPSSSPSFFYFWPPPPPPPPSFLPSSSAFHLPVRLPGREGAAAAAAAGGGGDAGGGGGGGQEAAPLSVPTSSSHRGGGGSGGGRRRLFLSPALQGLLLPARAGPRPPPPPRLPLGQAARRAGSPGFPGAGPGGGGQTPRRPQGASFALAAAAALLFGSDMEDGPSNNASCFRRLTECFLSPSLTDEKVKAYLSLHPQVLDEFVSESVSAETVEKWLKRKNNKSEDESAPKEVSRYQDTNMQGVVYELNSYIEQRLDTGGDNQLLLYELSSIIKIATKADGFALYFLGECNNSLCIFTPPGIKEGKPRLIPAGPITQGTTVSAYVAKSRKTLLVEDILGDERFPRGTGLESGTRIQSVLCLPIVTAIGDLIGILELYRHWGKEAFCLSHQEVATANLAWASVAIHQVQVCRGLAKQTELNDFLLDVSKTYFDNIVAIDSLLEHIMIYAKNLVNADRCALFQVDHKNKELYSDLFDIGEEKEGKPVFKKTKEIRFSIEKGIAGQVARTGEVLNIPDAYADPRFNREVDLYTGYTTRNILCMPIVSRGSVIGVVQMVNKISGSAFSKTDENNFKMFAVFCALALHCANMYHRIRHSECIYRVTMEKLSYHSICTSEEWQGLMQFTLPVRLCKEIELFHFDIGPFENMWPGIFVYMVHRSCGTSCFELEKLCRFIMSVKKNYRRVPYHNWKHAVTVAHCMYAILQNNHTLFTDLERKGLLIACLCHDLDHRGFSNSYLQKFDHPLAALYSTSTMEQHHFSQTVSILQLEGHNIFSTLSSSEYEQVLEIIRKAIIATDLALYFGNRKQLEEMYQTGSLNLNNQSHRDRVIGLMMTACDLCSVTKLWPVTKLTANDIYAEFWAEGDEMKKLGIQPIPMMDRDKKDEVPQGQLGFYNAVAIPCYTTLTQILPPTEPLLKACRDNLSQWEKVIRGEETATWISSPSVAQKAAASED
Chain of Beta-2 adrenergic receptor (Homo sapiens) (P07550 whole entry, looked up): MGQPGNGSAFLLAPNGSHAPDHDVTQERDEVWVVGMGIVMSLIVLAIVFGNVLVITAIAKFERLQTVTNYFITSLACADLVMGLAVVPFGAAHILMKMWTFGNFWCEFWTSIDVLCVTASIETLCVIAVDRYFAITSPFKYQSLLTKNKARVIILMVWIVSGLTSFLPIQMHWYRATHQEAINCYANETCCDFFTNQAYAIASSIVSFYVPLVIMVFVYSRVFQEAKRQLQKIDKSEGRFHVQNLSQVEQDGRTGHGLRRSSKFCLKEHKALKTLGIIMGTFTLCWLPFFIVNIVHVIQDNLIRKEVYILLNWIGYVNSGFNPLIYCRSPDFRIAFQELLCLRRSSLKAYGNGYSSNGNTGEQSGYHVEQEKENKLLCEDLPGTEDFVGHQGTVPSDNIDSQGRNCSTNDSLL
Chain of Muscarinic acetylcholine receptor M4 (P08173 whole entry): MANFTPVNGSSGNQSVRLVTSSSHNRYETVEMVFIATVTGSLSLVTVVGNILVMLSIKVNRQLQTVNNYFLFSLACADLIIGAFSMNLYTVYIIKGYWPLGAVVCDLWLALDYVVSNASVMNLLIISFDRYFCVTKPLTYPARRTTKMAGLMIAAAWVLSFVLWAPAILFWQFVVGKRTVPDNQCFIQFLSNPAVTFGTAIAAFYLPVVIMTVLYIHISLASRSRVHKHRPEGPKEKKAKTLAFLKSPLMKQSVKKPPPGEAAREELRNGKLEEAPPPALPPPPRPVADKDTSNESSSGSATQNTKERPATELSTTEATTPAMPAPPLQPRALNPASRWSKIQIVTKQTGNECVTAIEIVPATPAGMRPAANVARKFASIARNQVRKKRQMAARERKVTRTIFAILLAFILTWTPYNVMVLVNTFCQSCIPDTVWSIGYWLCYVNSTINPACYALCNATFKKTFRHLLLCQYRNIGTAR
Chain of D(4) dopamine receptor (Homo sapiens) (P21917 whole entry): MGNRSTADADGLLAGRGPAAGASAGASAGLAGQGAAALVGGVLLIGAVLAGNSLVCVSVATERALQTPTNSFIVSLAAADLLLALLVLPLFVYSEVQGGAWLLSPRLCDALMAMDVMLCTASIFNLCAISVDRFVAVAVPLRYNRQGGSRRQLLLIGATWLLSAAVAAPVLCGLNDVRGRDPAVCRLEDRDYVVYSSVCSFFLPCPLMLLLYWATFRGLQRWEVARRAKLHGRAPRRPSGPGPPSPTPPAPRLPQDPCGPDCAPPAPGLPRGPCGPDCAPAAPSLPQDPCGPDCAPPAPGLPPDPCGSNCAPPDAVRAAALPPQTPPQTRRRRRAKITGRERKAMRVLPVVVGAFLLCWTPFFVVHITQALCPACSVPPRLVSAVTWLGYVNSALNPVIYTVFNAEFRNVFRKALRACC
Chain of Mu-type opioid receptor (Homo sapiens) (P35372 whole entry): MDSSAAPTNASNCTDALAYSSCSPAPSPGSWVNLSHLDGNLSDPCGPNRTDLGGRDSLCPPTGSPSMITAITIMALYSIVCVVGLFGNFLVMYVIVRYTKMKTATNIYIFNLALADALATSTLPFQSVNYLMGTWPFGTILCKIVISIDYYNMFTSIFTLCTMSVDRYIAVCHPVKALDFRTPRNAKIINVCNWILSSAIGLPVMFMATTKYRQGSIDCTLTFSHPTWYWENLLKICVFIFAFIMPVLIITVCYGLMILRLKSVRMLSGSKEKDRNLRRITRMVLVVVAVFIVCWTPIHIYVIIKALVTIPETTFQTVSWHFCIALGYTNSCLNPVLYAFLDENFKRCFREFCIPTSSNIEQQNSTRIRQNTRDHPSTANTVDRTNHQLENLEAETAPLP
Chain of Endothelin receptor type B (Homo sapiens) (P24530 whole entry): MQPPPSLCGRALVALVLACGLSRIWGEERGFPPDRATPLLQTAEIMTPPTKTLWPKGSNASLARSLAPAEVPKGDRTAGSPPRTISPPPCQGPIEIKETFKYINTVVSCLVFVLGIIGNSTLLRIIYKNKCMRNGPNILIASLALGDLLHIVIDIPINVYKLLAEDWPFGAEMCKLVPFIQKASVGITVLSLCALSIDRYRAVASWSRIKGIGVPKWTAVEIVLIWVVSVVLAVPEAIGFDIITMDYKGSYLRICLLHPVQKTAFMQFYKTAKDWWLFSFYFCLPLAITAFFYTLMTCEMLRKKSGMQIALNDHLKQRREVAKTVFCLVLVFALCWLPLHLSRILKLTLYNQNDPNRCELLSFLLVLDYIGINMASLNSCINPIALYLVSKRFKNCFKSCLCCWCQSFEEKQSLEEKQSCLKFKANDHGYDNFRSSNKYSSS
Chain of Alpha-1B adrenergic receptor (Rattus norvegicus) (P15823 whole entry): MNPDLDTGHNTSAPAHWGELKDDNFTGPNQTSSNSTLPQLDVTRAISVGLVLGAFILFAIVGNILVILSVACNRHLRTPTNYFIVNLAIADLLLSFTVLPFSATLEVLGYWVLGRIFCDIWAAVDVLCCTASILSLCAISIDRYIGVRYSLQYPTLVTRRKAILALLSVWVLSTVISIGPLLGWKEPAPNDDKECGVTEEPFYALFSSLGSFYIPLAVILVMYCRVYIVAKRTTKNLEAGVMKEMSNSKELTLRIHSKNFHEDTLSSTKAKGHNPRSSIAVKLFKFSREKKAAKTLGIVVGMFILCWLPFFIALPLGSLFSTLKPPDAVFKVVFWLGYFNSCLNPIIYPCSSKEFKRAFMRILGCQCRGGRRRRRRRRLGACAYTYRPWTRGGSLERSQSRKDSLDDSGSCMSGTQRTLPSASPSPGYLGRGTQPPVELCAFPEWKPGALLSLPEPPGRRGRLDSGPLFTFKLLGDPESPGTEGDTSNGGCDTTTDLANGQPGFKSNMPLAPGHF
Chain of Neuronal acetylcholine receptor subunit alpha-7 (Rattus norvegicus) (Q05941 whole entry): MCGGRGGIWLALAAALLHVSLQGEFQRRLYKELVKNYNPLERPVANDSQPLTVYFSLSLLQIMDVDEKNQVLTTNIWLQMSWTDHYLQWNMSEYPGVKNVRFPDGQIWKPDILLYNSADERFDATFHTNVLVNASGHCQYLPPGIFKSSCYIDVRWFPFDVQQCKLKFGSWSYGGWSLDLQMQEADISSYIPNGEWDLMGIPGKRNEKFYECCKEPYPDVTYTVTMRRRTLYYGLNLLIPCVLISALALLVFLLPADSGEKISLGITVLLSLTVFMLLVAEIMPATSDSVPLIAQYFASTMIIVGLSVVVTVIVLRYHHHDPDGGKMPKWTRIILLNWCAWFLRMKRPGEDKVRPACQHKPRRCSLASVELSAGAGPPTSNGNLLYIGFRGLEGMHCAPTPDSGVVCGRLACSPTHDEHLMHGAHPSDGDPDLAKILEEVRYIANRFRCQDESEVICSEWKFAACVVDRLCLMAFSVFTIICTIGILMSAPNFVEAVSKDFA

Work on CCOC(=O)N1CCC(CN2CCC3(CC2)CN(C(=O)N(C)C)c2ncccc23)CC1.O=C(O)/C=C/C(=O)O yielded an inhibition (Cricetinae) of 6%, an inhibition [1] of 0% and an ED50 (Rattus norvegicus [2]) of 1.44 mg/kg. For the same molecule, the inhibition [3] was -1%, the EC50 [4] was 47 nM and the inhibition [5] was 4%. For the same molecule, the inhibition [6] was 11%, the inhibition [7] was 13% and the inhibition (Rattus norvegicus [8]) was 14%. For the same molecule, the bioavailability [9] was 51.1%, the inhibition [10] was -7% and the inhibition [11] was -1%. It also gave an inhibition at 3 µM [12] of -21%, an Activity [13] of 76% and a Vd [14] of 2.3 L/kg. For the same molecule, the inhibition [15] was 11%, the inhibition [16] was -2% and the inhibition [17] was 9%. For the same molecule, the inhibition [18] was 15%, the inhibition (Rattus norvegicus [19]) was -5% and the EC50 [20] was 133 nM. It also gave an inhibition [21] of 3%, a Cmax [22] of 30.7 ng/mL and an inhibition (Rattus norvegicus [23]) of 7%. It also gave an inhibition [24] of 37%.
